Measurements taken from patent US6197818A, “Drug for treating diabetic nephrosis” (Nanjing General Hospital of Nanjing Command, PLA, priority 1999, dated 2001).

How the values were obtained:
[1] = acute toxicity, half lethal dose (LD50); format: in vivo; conditions: rat, in vivo; SD rats
SD rats = assay: acute toxicity, half lethal dose (LD50); format: in vivo; conditions: natural product
[2] = tolerability of oral rhein in volunteers; format: in vivo, human volunteers
Method: Of the thirty-six volunteers given rhein at dose of 200 mg/day (100 mg, b.i.d) for 3 days, only 5 persons experience gastro-intestinal disorders. Diarrhea occurred twice or thrice a day in three of these persons, and four times in only one person.

[3] = pharmacokinetic study of oral rhein, blood level; format: in vivo, human (volunteers)
Method: The blood level of rhein still kept at 200 to 500 ng/ml at 24th hour in volunteers.

[4] = solubility and stability of rhein; format: physicochemical
Text: It remains steady in room temperature for more than one year. The general formula of rhein or the salt thereof is shown as the following: [drawing 2]

[5] = system: Diabetic animal model of rat; assay: Suppression of renal hypertrophy by rhein in experimental diabetic rats (streptozotocin); format: in vivo, SD rats; conditions: for blood glucose level / Kidney Index (kidney weight/body weight ratio) / Kidney Volume / Kidney Weight: rhein-treated 2 mg/Kg/day; for Kidney Index (kidney weight/body weight ratio) / Kidney Volume / Kidney Weight: 12th week
Method: The concentration of rhein is 0.2 g/L.
Rats were made diabetic by an intra-abdominal injection of Streptozotocin (Sigma Chemical Co.; in 0.1 mmol/L citrate buffer, pH 4.5) in a dose of 25 mg/Kg/day for 5 days.
(§1) The observation was focused on the changes of kidney weight and volume in diabetic rats treated by rhein.

diabetic nephropathy = assay: Clinical trial of rhein on diabetic nephropathy; format: in vivo, human diabetic patients
Method: Twenty-five diabetic patients diagnosed according to the standard of WHO where enrolled in this study. The fast blood glucose levels were above 250 mg/100 ml in these patients. Diabetic nephropathy was confirmed morphologically by renal biopsy, or with measurement of urinary protein or albumin excretion in each patient.
A yellow powder supplied in capsula containing 25 mg rhein. The dosage of 100 mg per day (50 mg twice a day) rhein was given orally as therapy. All patients were followed at regular intervals for measurement of serum creatinine values and urinary protein or albumin excretion at least for 3 months.

[6] = system: Diabetic animal model of rat; assay: Suppression of renal hypertrophy by sodium rheinate in experimental diabetic rats (streptozotocin); format: in vivo, SD rats; conditions: for blood glucose level / Kidney Index (kidney weight/body weight ratio) / Kidney Weight: treated 1 mg/Kg/day Rhein-Na; for Kidney Index (kidney weight/body weight ratio) / Kidney Weight: 12th week
Method: Drug: aqueous solution of sodium rheinate at concentration of 0.1 g/L for oral
Diabetic animal model of rat: Adult female SD rats (Experimental Animal Center, Jinling Hospital, Nanjing) with body weights of 200 to 250 grams were used. Rats were made diabetic by an intra-abdominal injection of Streptozotocin (Sigma Chemical Co.; in 0.1 mmol/L citrate buffer, pH 4.5) in a dose of 25 mg/Kg/day for 5 days. Only rats with blood glucose level within the range of 13 to 25 mmol/L were recognized as the establishment of the diabetic mode.
as §1
The experiment was designed as the following:
Normal rats Diabetic rats
Control treated Control treated
Dosage of Rhein-Na, 0 1 0 1
Distilled water, ml/Kg/day 5 5 5 5

[7] = system: kidney damage caused by diabetes; conditions: cited from earlier work
[8] = of thirty-six volunteers, 200 mg/day (100 mg, b.i.d) for 3 days
[9] = diabetic rats, 1 week after diabetic
[10] = diabetic rats, 4 weeks after diabetic
[11] = diabetic rats, pre-diabetic (baseline)
[12] = experimental diabetic rats, oral
[13] = Treatment after 3 months, 100 mg per day
[14] = of twenty-five, 100 mg per day, three months
[15] = patients treated with rhein, 100 mg per day

With `O=C(O)c1cc(O)c2c(c1)C(=O)c1cccc(O)c1C2=O` [rhein] the LD50 [1] was 3200 mg/kg, the “toxicity (in words)” value (SD rats) was “low toxicity and safe for therapy” and the “persons experiencing gastro-intestinal disorders” value [2, 8] was 5 persons. The “persons with diarrhea four times a day” value [2, 8] was “one”, the “persons with diarrhea twice or thrice a day” value [2, 8] was “three” and the “gastro-intestinal reactions (in words)” value ([2]; oral route, volunteers) was “not marked gastro-intestinal reactions”. The concentration at 24 h ([3]; human, blood, po, 24th hour, volunteers, single dose of 200 mg) was 200 to 500 ng/mL, the “time to peak blood level” value ([3]; one single dose of 200 mg, health man) was “one and half hours to three” and the “absorption from gastro-intestinal trace” value ([3]; oral) was “easily absorbed”. For the same compound, the “maintenance of blood concentration” value ([3]; oral) was “maintains for a longer period”, the “solubility in organic solvent” value ([4]; organic solvent) was “soluble in organic solvent” and the “stability (remains steady)” value ([4]; room temperature) was “more than one”. For the same compound, the solubility in water ([4]; water) was “soluble slightly in water”, the “kidney index (in words)” value ([5]; diabetic rats) was “decrease the kidney index (kidney weight/body weight ratio) obviously” and the “renal hypertrophy (in words)” value ([5]; diabetic rats) was “able to control or suppress renal hypertrophy”. The blood glucose level [5, 9] was 20.32 mmol/L, the blood glucose level [5, 10] was 19.77 mmol/L and the blood glucose level ([5]; diabetic rats, 8 weeks after diabetic) was 21.00 mmol/L. For the same compound, the “Kidney Index (kidney weight/body weight ratio)” value ([5]; diabetic rats) was 4.76 ×10^-3, the “Kidney Volume” value ([5]; diabetic rats) was 0.834 mL and the “Kidney Weight” value ([5]; diabetic rats) was 0.93 grams. The blood glucose level ([5]; diabetic rats, 12 weeks after diabetic) was 19.32 mmol/L, the blood glucose level [5, 11] was 6.23 mmol/L and the “hyperglycemia (in words)” value [5, 12] was “controlled or reduced effectively”. It also gave a blood glucose level ([5]; normal rats, 1 week) of 5.92 mmol/L, a blood glucose level ([5]; normal rats, 4 weeks) of 5.66 mmol/L and a blood glucose level ([5]; normal rats, 8 weeks) of 6.07 mmol/L. The “Kidney Index (kidney weight/body weight ratio)” value ([5]; normal rats) was 4.04 ×10^-3, the “Kidney Volume” value ([5]; normal rats) was 0.804 mL and the “Kidney Weight” value ([5]; normal rats) was 0.72 grams. For the same compound, the blood glucose level ([5]; normal rats, 12 weeks) was 6.22 mmol/L, the blood glucose level ([5]; normal rats, pre-diabetic) was 6.12 mmol/L and the “gastro-intestinal reactions as vomiting, diarrhea et al.” value (diabetic nephropathy; 100 mg per day) was “None”. The “share of patients with obvious decrement of urinary protein excretion” value (diabetic nephropathy; 18 of twenty-five, 100 mg per day, three months) was 72%, the “Change of urinary protein excretion: Decrease of 25%” value (diabetic nephropathy; [13]) was 5 No and the “Change of urinary protein excretion: Decrease of 50%” value (diabetic nephropathy; [13]) was 9 No. The “Change of urinary protein excretion: Decrease of 75%” value (diabetic nephropathy; [13]) was 4 No, the “Change of urinary protein excretion: No change” value (diabetic nephropathy; [13]) was 7 No and the “tolerability (in words)” value (diabetic nephropathy; all patients, 100 mg per day) was “tolerated”. For the same compound, the “urinary albumin excretion (in words)” value (diabetic nephropathy; diabetic nephropathy patients) was “ameliorate the urinary albumin excretion significantly”, the “urinary protein excretion (in words)” value (diabetic nephropathy; diabetic patients) was “could decrease the urinary protein excretion” and the “patients with no change or increase of urinary protein excretion” value (diabetic nephropathy; [14]) was “seven”. The “patients with obvious decrement of urinary protein excretion” value (diabetic nephropathy; [14]) was 18 patients, the Blood routine test (diabetic nephropathy; [15]) was “normal” and the “liver function and renal function” value (diabetic nephropathy; [15]) was “no liver function abnormally and deterioration of renal function”.
For `O=C(O)c1cc(O)c2c(c1)C(=O)c1cccc(O)c1C2=O` [sodium rheinate], the blood glucose level [6, 9] was 21.82 mmol/L, the blood glucose level [6, 10] was 19.97 mmol/L and the “Kidney Index (kidney weight/body weight ratio)” value ([6]; diabetic rats) was 5.68 ×10^-3. For the same compound, the “Kidney Weight” value ([6]; diabetic rats) was 0.71 grams, the blood glucose level [6, 11] was 6.17 mmol/L and the “hyperglycemia (in words)” value [6, 12] was “controlled or reduced effectively”. The blood glucose level ([6]; normal rats, 1 week) was 6.52 mmol/L, the blood glucose level ([6]; normal rats, 4 weeks) was 6.48 mmol/L and the “Kidney Index (kidney weight/body weight ratio)” value ([6]; normal rats) was 4.34 ×10^-3. For the same compound, the “Kidney Weight” value ([6]; normal rats) was 0.59 grams and the blood glucose level ([6]; normal rats, pre-diabetic) was 6.06 mmol/L.
For “insulin: the main medicament for its treatment is insulin at present”, the “effect on urinary glucose” value [7] is given as “can decrease the urinary glucose” and the “effect on kidney damage caused by diabetes” value ([7]; such as renal hypertrophy) is given as “no therapeutic effect”.
